The results in this text go back to ChEMBL document CHEMBL6092187, “Enantiomerically Pure Indazole Bioisosteres of Ifenprodil and Ro 25-6981 as Negative Allosteric Modulators of NMDA Receptors with the GluN2B Subunit” (J Med Chem, 2024).

Series [1] concerns the target Albumin (Homo sapiens, UniProt P02768). Kind of series: Binding affinity to human serum albumin measured after 60 mins by high performance affinity chromatography based LC-MS analysis. As to conditions: 1 h.
The target of series [2] is Sigma non-opioid intracellular receptor 1 (Cavia porcellus, UniProt Q60492). Kind of series: Displacement of [3H](+)-pentazocine from sigma1 receptor in guniea pig brain membrane assessed as inhibition constant by competitive binding assay. The class given is cell membranes.
Sequence of Sigma non-opioid intracellular receptor 1 (Q60492 whole entry): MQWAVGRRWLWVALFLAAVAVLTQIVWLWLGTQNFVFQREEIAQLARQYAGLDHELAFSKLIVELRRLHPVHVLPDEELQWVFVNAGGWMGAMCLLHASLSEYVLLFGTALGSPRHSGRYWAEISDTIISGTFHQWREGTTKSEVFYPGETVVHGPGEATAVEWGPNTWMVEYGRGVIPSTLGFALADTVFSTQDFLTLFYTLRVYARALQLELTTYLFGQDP
Series [3] deals with T1, Sigma intracellular receptor 2 (Rattus norvegicus, UniProt Q5U3Y7).
T1 sequence (Q5U3Y7 whole entry): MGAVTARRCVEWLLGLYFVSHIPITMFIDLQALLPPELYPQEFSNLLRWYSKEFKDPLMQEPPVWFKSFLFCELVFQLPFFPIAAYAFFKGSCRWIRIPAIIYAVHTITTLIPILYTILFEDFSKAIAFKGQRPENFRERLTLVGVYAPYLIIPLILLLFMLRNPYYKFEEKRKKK
Kind of series: Displacement of [3H](+)-pentazocine from sigma2 receptor in rat liver membrane assessed as inhibition constant by competitive binding assay. The class given is cell membranes. A general note: In a radioligand displacement assay an active substance lowers the binding of a labelled ligand.

The nature of series [4]: in vitro. As to conditions: mouse, liver microsomes.
Description: Metabolic stability in mouse liver microsomes assessed as parent compound remaining measured after 90 mins in presence of NADPH by HPLC analysis
Series [5] is described as follows: physchem. To be noted: n-octanol/3-morpholinopropanesulfonic acid (MOPS) buffer, pH 7.4.
For series [6] the following is noted: mouse, microsomes, 1.5 h.
Description: Drug metabolism in mouse liver microsomes assessed as glucuronic acid conjugates formation measured after 90 mins in presence of UDP-GA by LC-MS analysis
Series [7] concerns the target Glutamate receptor ionotropic, NMDA 2B (Homo sapiens, UniProt Q13224). Kind of series: Displacement of [3H]ifenprodil from human GluN2B receptor extracted from mouse LTK- cell membrane assessed as inhibition constant by competitive binding assay. It is filed as cell membranes.
Series [8] can be described thus: Metabolic stability in human liver microsomes assessed as half-life at 10 uM measured after 120 mins by LC-MS/MS analysis. It is filed as ADME, Microsome.

Sequence of Albumin (P02768 whole entry): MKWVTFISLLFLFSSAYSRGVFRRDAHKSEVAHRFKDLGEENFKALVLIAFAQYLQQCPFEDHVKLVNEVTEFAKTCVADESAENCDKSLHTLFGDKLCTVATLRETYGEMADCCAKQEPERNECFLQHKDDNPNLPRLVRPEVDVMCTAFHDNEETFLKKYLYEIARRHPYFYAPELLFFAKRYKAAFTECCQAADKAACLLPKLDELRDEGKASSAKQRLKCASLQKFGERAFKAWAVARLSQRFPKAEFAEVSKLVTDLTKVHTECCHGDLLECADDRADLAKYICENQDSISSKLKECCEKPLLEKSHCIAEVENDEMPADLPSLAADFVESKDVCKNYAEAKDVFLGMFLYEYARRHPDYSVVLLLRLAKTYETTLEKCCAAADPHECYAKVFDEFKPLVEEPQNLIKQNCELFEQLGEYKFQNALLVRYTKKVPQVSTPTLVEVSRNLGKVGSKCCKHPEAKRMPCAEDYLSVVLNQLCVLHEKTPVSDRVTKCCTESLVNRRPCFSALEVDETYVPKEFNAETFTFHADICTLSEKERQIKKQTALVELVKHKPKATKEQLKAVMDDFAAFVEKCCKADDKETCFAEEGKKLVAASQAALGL
Sequence of Glutamate receptor ionotropic, NMDA 2B (Q13224 whole entry): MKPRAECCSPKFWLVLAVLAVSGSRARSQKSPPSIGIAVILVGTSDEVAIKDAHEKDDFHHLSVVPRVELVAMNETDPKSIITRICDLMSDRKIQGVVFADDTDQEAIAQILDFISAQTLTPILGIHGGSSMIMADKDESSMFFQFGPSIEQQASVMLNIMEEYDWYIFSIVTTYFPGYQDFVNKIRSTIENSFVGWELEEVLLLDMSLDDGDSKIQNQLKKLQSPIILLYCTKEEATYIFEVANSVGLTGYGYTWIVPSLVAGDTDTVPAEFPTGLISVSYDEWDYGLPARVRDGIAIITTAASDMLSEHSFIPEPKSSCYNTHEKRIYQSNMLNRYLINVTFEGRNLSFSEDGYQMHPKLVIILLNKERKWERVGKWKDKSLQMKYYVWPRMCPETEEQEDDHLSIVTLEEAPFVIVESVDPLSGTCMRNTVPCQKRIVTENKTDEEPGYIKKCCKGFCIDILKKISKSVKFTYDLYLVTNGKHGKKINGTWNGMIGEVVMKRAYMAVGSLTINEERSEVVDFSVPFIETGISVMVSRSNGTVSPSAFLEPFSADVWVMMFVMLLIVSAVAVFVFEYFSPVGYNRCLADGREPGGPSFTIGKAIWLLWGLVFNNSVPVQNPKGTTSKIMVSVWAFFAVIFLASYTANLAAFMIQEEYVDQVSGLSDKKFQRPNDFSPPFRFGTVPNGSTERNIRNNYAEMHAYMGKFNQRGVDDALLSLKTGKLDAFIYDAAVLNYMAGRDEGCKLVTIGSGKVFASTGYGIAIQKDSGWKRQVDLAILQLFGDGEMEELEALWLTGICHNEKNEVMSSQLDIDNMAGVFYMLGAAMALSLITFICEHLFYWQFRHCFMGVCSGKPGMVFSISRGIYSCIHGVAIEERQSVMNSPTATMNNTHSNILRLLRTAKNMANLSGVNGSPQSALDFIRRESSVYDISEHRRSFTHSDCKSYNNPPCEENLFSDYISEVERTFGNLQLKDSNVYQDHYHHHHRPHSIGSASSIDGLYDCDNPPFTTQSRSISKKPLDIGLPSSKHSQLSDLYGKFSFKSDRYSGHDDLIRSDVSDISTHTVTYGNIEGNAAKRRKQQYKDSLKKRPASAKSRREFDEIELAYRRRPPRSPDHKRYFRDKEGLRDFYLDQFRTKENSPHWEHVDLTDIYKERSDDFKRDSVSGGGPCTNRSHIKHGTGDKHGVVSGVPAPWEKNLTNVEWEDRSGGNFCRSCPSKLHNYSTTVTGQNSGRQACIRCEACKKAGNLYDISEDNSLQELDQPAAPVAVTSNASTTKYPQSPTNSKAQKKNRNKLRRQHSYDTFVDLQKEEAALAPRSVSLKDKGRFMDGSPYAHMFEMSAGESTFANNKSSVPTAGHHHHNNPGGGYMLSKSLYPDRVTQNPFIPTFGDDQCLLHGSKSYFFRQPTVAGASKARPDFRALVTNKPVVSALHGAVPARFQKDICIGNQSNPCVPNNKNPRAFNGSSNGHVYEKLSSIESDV

Usually Ki stands for the equilibrium dissociation constant of an inhibitor or competing ligand from its target. In the case of `C[C@H]([C@@H](O)c1ccc2[nH]ncc2c1)N1CCC(Cc2ccccc2)CC1`, the Activity in series [1] was found to be 92%. Further, the inhibition constant Ki in series [2] worked out at 313 nM; in series [3], 263 nM.

As to `C[C@@H]([C@@H](O)c1ccc2[nH]ncc2c1)N1CCC(Cc2ccccc2)CC1`, in series [1], the Activity is 91%. Also, the Ki is 523 nM in series [2] and 556 nM in series [3].

Consider `C[C@@H]([C@H](O)c1ccc2[nH]ncc2c1)N1CCC(Cc2ccccc2)CC1` (stereo in doubt; 11ab), for which the Ki in series [2] turned out to be 38 nM; in series [3] it was 245 nM.

For `C[C@H]([C@H](O)c1ccc2[nH]ncc2c1)N1CCC(Cc2ccccc2)CC1` (stereo in doubt; 11cd), the Ki in series [2] is 34 nM; in series [3], 19 nM.

As a reminder, the share remaining is the share of the starting amount still present when the sample was taken. A higher share remaining goes with less turnover. The logD is the decadic logarithm of the distribution of all forms, ionised or not, between an organic phase and buffer at a given pH. Lower therefore signals a more hydrophilic compound. The half-life is the time needed for the level to fall by half in the phase considered. Take `C[C@@H](CN1CCC(Cc2ccccc2)CC1)[C@@H](O)c1ccc(O)cc1`: the Activity in series [1] stood at 82%. The share remaining at 1.5 h in series [4] worked out at 5%. Further, in series [5], the log distribution coefficient (logD) was 1.9. The Drug metabolism result in series [6] was “metabolite_detected”. Further, the Ki in series [7] stood at 135 nM. Besides, the half-life at 10 µM in series [8] turned out to be 23.7 min.

With `C[C@@H]([C@H](O)c1ccc2[nH]ncc2c1)N1CCC(Cc2ccccc2)CC1` (stereo in doubt; 11a), the Activity in series [1] is 92%. For the same molecule, the figures for the Ki in series [2] and in series [3] were 96 nM and 33 nM, respectively.

In series [1], `C[C@@H](CN1CCC(Cc2ccccc2)CC1)[C@@H](O)c1ccc2[nH]ncc2c1` gave an Activity of 89%. For the same molecule, the Ki in series [2] was 21 nM; in series [3], 209 nM.

Take `C[C@H](CN1CCC(Cc2ccccc2)CC1)[C@H](O)c1ccc2[nH]ncc2c1` (stereo in doubt; 10a): in series [1], the Activity came out at 89%. Moreover, the Ki in series [2] was determined as 24 nM; in series [3] it was 111 nM.

On to `C[C@@H](CN1CCC(Cc2ccccc2)CC1)[C@H](O)c1ccc2[nH]ncc2c1` (stereo in doubt; 10cd), for which the figures for the Ki in series [2] and in series [3] were 44 nM and 57 nM, respectively.

In series [1], `C[C@H]([C@H](O)c1ccc2[nH]ncc2c1)N1CCC(Cc2ccccc2)CC1` (stereo in doubt; 11c) came in with an Activity of 90%. Moreover, the figures for the Ki in series [2] and in series [3] were 672 nM and 112 nM, respectively.

`C[C@H](CN1CCC(Cc2ccccc2)CC1)[C@H](O)c1ccc2[nH]ncc2c1` (stereo in doubt; 10ab): the inhibition constant (Ki) in series [2] was determined as 56 nM; in series [3], 388 nM.

Molecule `CC(C(O)c1ccc(O)cc1)N1CCC(Cc2ccccc2)CC1` (configuration not stated) [IFENPRODIL] yielded an Activity in series [1] of 84%. Moreover, the share remaining at 1.5 h in series [4] amounted to 91.4%. Also, the logD in series [5] was determined as 1.43. In addition, the Drug metabolism result in series [6] is “metabolite_detected”.

As for `C[C@@H](CN1CCC(Cc2ccccc2)CC1)[C@H](O)c1ccc2[nH]ncc2c1` (stereo in doubt; 10c), in series [1], the Activity was found to be 93%. Moreover, the Ki turned out to be 46 nM in series [2] and 269 nM in series [3].

In turn, `C[C@H](CN1CCC(Cc2ccccc2)CC1)[C@@H](O)c1ccc2[nH]ncc2c1` gave an Activity in series [1] of 93%. For the same molecule, the inhibition constant (Ki) in series [2] came out at 43 nM; in series [3], 42 nM.
